Measured values taken from US9840513B2 (AbbVie S.à.r.l., priority 2015, dated 2017).

Assays:
[1] = biological target: T1, F508delCFTR cell surface expression in CFBE41o-F508delCFTR-HRP cells (Homo sapiens, UniProt P13569, DEL508-508); assay: Cell Surface Expression-Horse Radish Peroxidase (CSE-HRP) Assay; type: cell-based; conditions: for EC50: CFBE41o-F508delCFTR-HRP cells, 18-24 hours at 33° C., 8-point curve, highest concentration 20 μM; for Maximum % activity (%): maximum at any tested concentration, normalized to on-plate positive control (3 μM)
T1 construct: fused on or other part: Horseradish peroxidase (HRP) reporter inserted in the fourth exofacial (extracellular) loop of CFTR; expression is doxycycline-inducible
Procedure, shortened: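 Correctors incubated 18-24 h at 33 °C on doxycycline-induced (0.5 μg/mL, 72 h) CFBE41o-F508delCFTR-HRP cells, 3-fold series from 20 μM. After DPBS washes, luminol luminescence read; activity expressed relative to DMSO and a 3 μM positive control, EC50 fitted from triplicate plates.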

[2] = biological target: T2, F508delCFTR in primary hBE cells with F508del/F508del CFTR mutation (Homo sapiens, UniProt P13569, DEL508-508); assay: Transepithelial Clamp Circuit on Human Bronchial Epithelial Cells Conductance Assay (hBE-TECC); type: cell-based; conditions: for EC50: primary hBE cells F508del/F508del, 18-24 hours at 37° C., equivalent short circuit current, 6 concentrations; for Maximum % activity (%): relative to positive control (3 μM) coupled with control potentiator
T2 construct: cells isolated from CF patients with the homozygous mutation; endogenous in cells; host or cells: primary human bronchial epithelial (hBE) cells from F508del/F508del CF patients
Text: Transepithelial Clamp Circuit on Human Bronchial Epithelial Cells Conductance Assay:
A cell based assay using the primary human bronchial epithelial cells (hBE) was used as a secondary assay to test novel F508delCFTR correctors for their activity on primary hBE cells with F508del/F508del CFTR mutation. The assay used a TECC-24 (Transepithelial Clamp Circuit for 24 wells) instrument that measures the functionality of the mutated channel by measuring the equivalent short circuit current (Ieq) generated by the polarized epithelial cells. The instrument works by measuring the transepithelial potential difference (Vt) and transepithelial resistance (Rt) in an open circuit format, and the Ieq is calculated by using Ohms law (Ieq=Vt/Rt). The assay was run in a 24-well format and all 24-wells were measured at the same time point giving a higher throughput for this assay.
Primary human bronchial epithelial (hBE) cells from F508del/F508delCFTR patients were expanded from 1×10^6 to 250×10^6 cells (Neuberger T, Burton B, Clark H and VanGoor F; Cystic Fibrosis, Methods in Mole Biol 741; eds. Amaral M D and Kunzelmann K, 2011). For this purpose, cells isolated from CF patients with the homozygous mutation were seeded onto 24 well Corning (Cat #3378) filter plates that were coated with 3T3 conditioned media and grown at an air-liquid interface for 35 days using an Ultroser® G supplemented differentiation media. Apical surface mucus was removed 72 hours before the experiment using 3 mM dithiothreitol (DTT) in phosphate buffered saline (PBS). The apical surface was washed again 24 hours before the experiment using PBS. The cells were incubated with the desired dose response of the corrector compounds 18-24 hours at 37° C., 5% CO2. The corrector compounds are only added on the basolateral side of the epithelial cells.
On the day of measuring the corrector activity on the TECC, the cells were switched into a bicarbonate and serum free F-12 Coon's medium and allowed to equilibrate for 90 minutes in a CO2 free incubator. At the time of measurement, the apical and basolateral sides of the filter were bathed with the F-12 Coon's modification media (with 20 mM 4-(2-hydroxyethyl)-1-piperazineethanesulfonic acid (HEPES), pH 7.4 (using 1 M tris(hydroxymethyl)aminomethane (Tris)), and the measurements were made at 36.5° C. Transepithelial voltage (Vt) and transepithelial resistance (Rt) were measured using a 24 channel transepithelial current clamp (TECC-24). Current responses to the sequential addition of benzamil (apical 6 μM addition; for inhibiting epithelial ENaC channel), forskolin (apical and basolateral 10 μM addition; for activating the CFTR channel), control potentiator (N-(3-carbamoyl-5,5,7,7-tetramethyl-4,7-dihydro-5H-thieno[2,3-c]pyran-2-yl)-1H-pyrazole-5-carboxamide; apical and basolateral […] addition; for potentiating the CFTR channel) and bumetanide (basolateral 20 μM addition; for inhibiting the Na:2Cl:K co-transporter, an indirect measure of inhibiting the Cl-secretion driven by CFTR channel) were measured.
All plates contained negative controls (dimethyl sulfoxide, DMSO) which coupled with the control potentiator (N-(3-carbamoyl-5,5,7,7-tetramethyl-4,7-dihydro-5H-thieno[2,3-c]pyran-2-yl)-1H-pyrazole-5-carboxamide) sets the null response and positive controls (3 μM of 3-[(2R,4R)-4-({[1-(2,2-difluoro-1,3-benzodioxol-5-yl)cyclopropyl]carbonyl}amino)-7-methoxy-3,4-dihydro-2H-chromen-2-yl]benzoic acid) coupled with the control potentiator sets the 100% response to measure the correction of the mutated CFTR channel. The maximum percent activity is reported relative to the positive control value.
The % activity measured at each of the 6 test concentrations of the test compound was normalized to the on-plate positive control using the following formula: % activity=[[…]]*100 […]

T1 sequence (P13569 with tags, fused parts or gaps DEL508-508 limits assumed): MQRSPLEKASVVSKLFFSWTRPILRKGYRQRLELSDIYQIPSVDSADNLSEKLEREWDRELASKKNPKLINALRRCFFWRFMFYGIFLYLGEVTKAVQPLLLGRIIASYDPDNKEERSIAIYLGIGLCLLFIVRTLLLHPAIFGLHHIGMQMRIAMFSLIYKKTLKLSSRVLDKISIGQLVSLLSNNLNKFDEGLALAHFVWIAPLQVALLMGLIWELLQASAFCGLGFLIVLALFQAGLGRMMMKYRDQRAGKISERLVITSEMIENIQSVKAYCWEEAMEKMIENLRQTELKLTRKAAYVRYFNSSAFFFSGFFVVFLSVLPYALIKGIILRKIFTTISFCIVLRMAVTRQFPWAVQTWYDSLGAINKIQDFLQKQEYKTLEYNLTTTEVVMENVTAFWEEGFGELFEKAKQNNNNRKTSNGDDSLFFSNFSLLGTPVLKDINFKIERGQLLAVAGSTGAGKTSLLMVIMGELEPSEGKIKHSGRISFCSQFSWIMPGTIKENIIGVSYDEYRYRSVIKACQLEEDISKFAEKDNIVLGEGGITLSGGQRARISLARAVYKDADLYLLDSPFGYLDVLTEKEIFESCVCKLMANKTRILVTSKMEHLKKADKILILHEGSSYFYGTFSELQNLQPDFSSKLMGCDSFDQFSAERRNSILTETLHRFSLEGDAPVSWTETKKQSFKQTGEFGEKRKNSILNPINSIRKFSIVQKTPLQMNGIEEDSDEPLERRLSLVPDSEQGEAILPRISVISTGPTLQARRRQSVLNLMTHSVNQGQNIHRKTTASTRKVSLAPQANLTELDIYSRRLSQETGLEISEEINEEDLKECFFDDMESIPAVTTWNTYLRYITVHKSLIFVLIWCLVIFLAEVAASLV
T1 sequence (P13569 919-1480 limits assumed, stated change not applied): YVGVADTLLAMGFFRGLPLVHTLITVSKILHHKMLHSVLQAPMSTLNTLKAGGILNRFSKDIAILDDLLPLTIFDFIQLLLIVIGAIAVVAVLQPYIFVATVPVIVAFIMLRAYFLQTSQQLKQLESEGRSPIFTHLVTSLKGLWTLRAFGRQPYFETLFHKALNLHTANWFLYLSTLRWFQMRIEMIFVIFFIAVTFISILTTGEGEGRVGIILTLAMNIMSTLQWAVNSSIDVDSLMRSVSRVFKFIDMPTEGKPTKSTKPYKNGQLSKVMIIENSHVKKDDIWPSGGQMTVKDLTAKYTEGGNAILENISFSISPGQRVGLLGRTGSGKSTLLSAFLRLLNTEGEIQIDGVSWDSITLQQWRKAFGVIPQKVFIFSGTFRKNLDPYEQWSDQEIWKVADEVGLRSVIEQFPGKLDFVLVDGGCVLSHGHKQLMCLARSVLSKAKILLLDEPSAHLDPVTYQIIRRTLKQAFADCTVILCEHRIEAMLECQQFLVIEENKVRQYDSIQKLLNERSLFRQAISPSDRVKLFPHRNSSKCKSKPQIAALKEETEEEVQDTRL
T2 sequence (P13569 with tags, fused parts or gaps DEL508-508): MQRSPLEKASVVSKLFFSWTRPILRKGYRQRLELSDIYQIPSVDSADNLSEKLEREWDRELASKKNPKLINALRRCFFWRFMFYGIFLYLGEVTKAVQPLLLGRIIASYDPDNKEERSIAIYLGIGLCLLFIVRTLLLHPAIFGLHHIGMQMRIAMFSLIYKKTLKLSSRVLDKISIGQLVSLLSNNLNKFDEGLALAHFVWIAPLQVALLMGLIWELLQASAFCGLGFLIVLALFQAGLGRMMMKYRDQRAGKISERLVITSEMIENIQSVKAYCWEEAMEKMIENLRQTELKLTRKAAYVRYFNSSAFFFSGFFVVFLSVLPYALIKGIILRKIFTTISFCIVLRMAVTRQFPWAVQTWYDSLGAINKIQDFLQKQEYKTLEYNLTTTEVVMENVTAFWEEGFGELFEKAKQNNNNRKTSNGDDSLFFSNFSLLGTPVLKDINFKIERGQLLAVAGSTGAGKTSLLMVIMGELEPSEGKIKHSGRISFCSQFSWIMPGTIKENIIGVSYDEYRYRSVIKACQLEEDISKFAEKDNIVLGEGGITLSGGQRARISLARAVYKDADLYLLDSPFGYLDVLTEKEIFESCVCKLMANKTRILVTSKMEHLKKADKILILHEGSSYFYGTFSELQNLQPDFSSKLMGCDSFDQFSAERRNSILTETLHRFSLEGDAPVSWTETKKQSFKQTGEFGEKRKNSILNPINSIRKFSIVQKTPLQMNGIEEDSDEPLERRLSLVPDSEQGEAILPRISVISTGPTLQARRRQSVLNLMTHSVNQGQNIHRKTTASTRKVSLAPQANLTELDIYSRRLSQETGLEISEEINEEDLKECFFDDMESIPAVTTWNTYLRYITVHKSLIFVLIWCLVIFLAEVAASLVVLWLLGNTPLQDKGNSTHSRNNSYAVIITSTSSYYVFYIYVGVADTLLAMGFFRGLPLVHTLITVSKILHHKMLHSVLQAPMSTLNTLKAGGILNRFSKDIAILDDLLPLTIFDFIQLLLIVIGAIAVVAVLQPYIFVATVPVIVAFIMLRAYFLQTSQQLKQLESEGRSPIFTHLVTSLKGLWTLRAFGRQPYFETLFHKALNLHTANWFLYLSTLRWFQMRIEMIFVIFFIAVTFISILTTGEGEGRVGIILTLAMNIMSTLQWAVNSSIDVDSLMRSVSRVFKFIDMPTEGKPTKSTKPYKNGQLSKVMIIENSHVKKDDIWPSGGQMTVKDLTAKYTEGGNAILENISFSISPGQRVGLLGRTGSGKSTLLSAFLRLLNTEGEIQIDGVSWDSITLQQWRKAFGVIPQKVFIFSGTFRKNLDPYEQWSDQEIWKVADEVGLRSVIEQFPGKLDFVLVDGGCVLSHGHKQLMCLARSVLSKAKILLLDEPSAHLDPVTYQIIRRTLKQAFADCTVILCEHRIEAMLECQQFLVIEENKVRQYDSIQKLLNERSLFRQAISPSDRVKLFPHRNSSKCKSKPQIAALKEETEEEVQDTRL

Row | SMILES | EC50 [1] [nM] | Maximum % activity (%) [1] [%] | EC50 [2] [nM] | Maximum % activity (%) [2] [%]
1 | COc1ccc2c(c1)O[C@@H](c1ccc(C(=O)O)nc1)C[C@H]2NC(=O)[C@@]1(C)COc2cc3c(cc21)OC(F)(F)O3 [Example 146, 5-[(2R,4R)-4-{[(7R)-2,2-difluoro-7-methyl-6,7-dihydro-2H-furo[2,3-f][1,3]benzodioxole-7-carbonyl]amino}-7-methoxy-3,4-dihydro-2H-1-benzopyran-2-yl]pyridine-2-carboxylic acid] | 335 | 153 | 160 | 89
2 | C[C@]1(C(=O)N[C@H]2C[C@@H]([C@H]3CC[C@H](C(=O)O)CC3)Oc3cc(OC(F)(F)F)ccc32)COc2cc3c(cc21)OC(F)(F)O3 [Example 149, trans-4-[(2S,4S)-4-{[(7R)-2,2-difluoro-7-methyl-6,7-dihydro-2H-furo[2,3-f][1,3]benzodioxole-7-carbonyl]amino}-7-(trifluoromethoxy)-3,4-dihydro-2H-1-benzopyran-2-yl]cyclohexane-1-carboxylic acid] | 2200 | 44 | 830 | 24
3 | C[C@]1(C(=O)N[C@@H]2C[C@H]([C@H]3CC[C@@H](C(=O)O)CC3)Oc3cc(OC(F)(F)F)ccc32)COc2cc3c(cc21)OC(F)(F)O3 [Example 162, cis-4-[(2R,4R)-4-{[(7R)-2,2-difluoro-7-methyl-6,7-dihydro-2H-furo[2,3-f][1,3]benzodioxole-7-carbonyl]amino}-7-(trifluoromethoxy)-3,4-dihydro-2H-1-benzopyran-2-yl]cyclohexane-1-carboxylic acid] | 712 | 120 | 20 | 86
4 | COc1ccc2c(c1)O[C@@H]([C@H]1CC[C@H](C(=O)O)CC1)C[C@H]2NC(=O)[C@@]1(C)CCc2cc3c(cc21)OC(F)(F)O3 [Example 168, trans-4-[(2R,4R)-4-{[(5S)-2,2-difluoro-5-methyl-6,7-dihydro-2H,5H-indeno[5,6-d][1,3]dioxole-5-carbonyl]amino}-7-methoxy-3,4-dihydro-2H-1-benzopyran-2-yl]cyclohexane-1-carboxylic acid] | 161 | 127 | 43 | 101
5 | CC1(c2cc3cc(NC(=O)[C@@]4(C)COc5cc6c(cc54)OC(F)(F)O6)c(F)cc3n2C[C@@H](O)CO)COC1 [Example 171, (7R)—N-{1-[(2R)-2,3-dihydroxypropyl]-6-fluoro-2-(3-methyloxetan-3-yl)-1H-indol-5-yl}-2,2-difluoro-7-methyl-6,7-dihydro-2H-furo[2,3-f][1,3]benzodioxole-7-carboxamide] | 660 | 92 | 352 | 45
6 | C[C@]1(C(=O)Nc2cc3cc(C4(CO)CCC4)[nH]c3cc2F)COc2cc3c(cc21)OC(F)(F)O3 [Example 172, (7R)-2,2-difluoro-N-{6-fluoro-2-[1-(hydroxymethyl)cyclobutyl]-1H-indol-5-yl}-7-methyl-6,7-dihydro-2H-furo[2,3-f][1,3]benzodioxole-7-carboxamide] | 950 | 210 | 98 | 50

These reach a lower EC50 [1]. Values come first.

Row | EC50 [1] [nM] | Maximum % activity (%) [1] [%] | EC50 [2] [nM] | Maximum % activity (%) [2] [%] | SMILES
7 | 26 | 145 | 10 | 94 | C[C@]1(C(=O)N[C@@H]2C[C@H]([C@H]3CC[C@H](C(=O)O)CC3)Oc3cc(OC(F)(F)F)ccc32)COc2cc3c(cc21)OC(F)(F)O3 [Example 150, trans-4-[(2R,4R)-4-{[(7R)-2,2-difluoro-7-methyl-6,7-dihydro-2H-furo[2,3-f][1,3]benzodioxole-7-carbonyl]amino}-7-(trifluoromethoxy)-3,4-dihydro-2H-1-benzopyran-2-yl]cyclohexane-1-carboxylic acid]
8 | 12 | 132 | 7.6 | 93 | C[C@]1(C(=O)N[C@@H]2C[C@H](c3ccc(C(=O)O)cn3)Oc3cc(OC(F)F)ccc32)COc2cc3c(cc21)OC(F)(F)O3 [Example 151, 6-[(2R,4R)-7-(difluoromethoxy)-4-{[(7R)-2,2-difluoro-7-methyl-6,7-dihydro-2H-furo[2,3-f][1,3]benzodioxole-7-carbonyl]amino}-3,4-dihydro-2H-1-benzopyran-2-yl]pyridine-3-carboxylic acid]
9 | 92 | 137 | 20 | 102 | COc1ccc2c(c1)O[C@@H]([C@H]1CC[C@H](C(=O)O)CC1)C[C@H]2NC(=O)[C@@]1(C)COc2cc3c(cc21)OC(F)(F)O3 [Example 155, trans-4-[(2R,4R)-4-{[(7R)-2,2-difluoro-7-methyl-6,7-dihydro-2H-furo[2,3-f][1,3]benzodioxole-7-carbonyl]amino}-7-methoxy-3,4-dihydro-2H-1-benzopyran-2-yl]cyclohexane-1-carboxylic acid]
10 | 44 | 136 | 5 | 85 | C[C@]1(C(=O)N[C@@H]2C[C@H]([C@H]3CC[C@H](C(=O)O)CC3)Oc3cc(OC(F)F)ccc32)COc2cc3c(cc21)OC(F)(F)O3 [Example 160, trans-4-[(2R,4R)-7-(difluoromethoxy)-4-{[(7R)-2,2-difluoro-7-methyl-6,7-dihydro-2H-furo[2,3-f][1,3]benzodioxole-7-carbonyl]amino}-3,4-dihydro-2H-1-benzopyran-2-yl]cyclohexane-1-carboxylic acid]
11 | 30 | 129 | 11 | 84 | C[C@]1(C(=O)N[C@@H]2C[C@H](C3(C(=O)O)CC3)Oc3cc(OC(F)(F)F)ccc32)COc2cc3c(cc21)OC(F)(F)O3 [Example 166, 1-[(2R,4R)-4-{[(7R)-2,2-difluoro-7-methyl-6,7-dihydro-2H-furo[2,3-f][1,3]benzodioxole-7-carbonyl]amino}-7-(trifluoromethoxy)-3,4-dihydro-2H-1-benzopyran-2-yl]cyclopropane-1-carboxylic acid]
12 | 53 | 135 | 87 | 112 | C[C@]1(C(=O)N[C@@H]2C[C@H]([C@H]3CC[C@H](C(=O)O)CC3)Oc3cc(OC(F)(F)F)ccc32)CCc2cc3c(cc21)OC(F)(F)O3 [Example 167, trans-4-[(2R,4R)-4-{[(5S)-2,2-difluoro-5-methyl-6,7-dihydro-2H,5H-indeno[5,6-d][1,3]dioxole-5-carbonyl]amino}-7-(trifluoromethoxy)-3,4-dihydro-2H-1-benzopyran-2-yl]cyclohexane-1-carboxylic acid]
